Assays:
[1] = biological target: T1, Receptor-type tyrosine-protein kinase FLT3 (Homo sapiens, UniProt P36888)
T1 sequence (P36888 whole entry): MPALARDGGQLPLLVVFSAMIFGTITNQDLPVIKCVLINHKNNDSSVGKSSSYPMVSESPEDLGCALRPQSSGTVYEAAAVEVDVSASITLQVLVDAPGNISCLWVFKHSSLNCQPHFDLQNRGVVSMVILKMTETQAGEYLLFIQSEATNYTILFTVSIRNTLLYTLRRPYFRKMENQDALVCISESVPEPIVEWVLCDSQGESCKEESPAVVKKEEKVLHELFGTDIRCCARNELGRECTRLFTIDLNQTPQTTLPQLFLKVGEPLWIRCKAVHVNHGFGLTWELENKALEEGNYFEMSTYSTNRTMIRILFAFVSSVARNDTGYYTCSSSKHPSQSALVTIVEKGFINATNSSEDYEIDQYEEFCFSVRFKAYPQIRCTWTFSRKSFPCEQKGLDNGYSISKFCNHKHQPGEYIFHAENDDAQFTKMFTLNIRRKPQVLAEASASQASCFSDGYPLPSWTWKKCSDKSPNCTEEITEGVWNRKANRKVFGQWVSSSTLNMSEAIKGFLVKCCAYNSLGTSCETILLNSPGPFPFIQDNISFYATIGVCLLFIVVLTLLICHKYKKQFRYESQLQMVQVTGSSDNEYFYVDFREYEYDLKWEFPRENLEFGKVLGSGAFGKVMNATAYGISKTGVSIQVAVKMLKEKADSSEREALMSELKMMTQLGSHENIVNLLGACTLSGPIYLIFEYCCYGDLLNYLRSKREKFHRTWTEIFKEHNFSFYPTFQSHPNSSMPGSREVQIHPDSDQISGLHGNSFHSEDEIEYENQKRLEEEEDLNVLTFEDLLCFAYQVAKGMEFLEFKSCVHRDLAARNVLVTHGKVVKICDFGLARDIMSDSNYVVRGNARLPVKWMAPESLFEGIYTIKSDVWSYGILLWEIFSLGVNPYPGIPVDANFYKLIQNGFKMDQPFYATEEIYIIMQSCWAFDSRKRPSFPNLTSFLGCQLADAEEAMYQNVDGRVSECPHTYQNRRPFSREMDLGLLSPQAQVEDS

[2] = biological target: Serine/threonine-protein kinase pim-2 (Homo sapiens, UniProt Q9P1W9)
[3] = biological target: Tyrosine-protein kinase SYK (Homo sapiens, UniProt P43405)
[4] = biological target: Protein-tyrosine kinase 6 (Homo sapiens, UniProt Q13882)
[5] = biological target: Calcium/calmodulin-dependent protein kinase type II subunit gamma (Homo sapiens, UniProt Q13555)
[6] = biological target: Casein kinase I isoform gamma-1 (Homo sapiens, UniProt Q9HCP0)
Ephrin type-A receptor 7 = Ephrin type-A receptor 7 (Homo sapiens, UniProt Q15375)
[7] = biological target: Tyrosine-protein kinase Fer (Homo sapiens, UniProt P16591)
[8] = biological target: T2, Serine/threonine-protein kinase 36 (Homo sapiens, UniProt Q9NRP7)
T2 sequence (Q9NRP7 whole entry): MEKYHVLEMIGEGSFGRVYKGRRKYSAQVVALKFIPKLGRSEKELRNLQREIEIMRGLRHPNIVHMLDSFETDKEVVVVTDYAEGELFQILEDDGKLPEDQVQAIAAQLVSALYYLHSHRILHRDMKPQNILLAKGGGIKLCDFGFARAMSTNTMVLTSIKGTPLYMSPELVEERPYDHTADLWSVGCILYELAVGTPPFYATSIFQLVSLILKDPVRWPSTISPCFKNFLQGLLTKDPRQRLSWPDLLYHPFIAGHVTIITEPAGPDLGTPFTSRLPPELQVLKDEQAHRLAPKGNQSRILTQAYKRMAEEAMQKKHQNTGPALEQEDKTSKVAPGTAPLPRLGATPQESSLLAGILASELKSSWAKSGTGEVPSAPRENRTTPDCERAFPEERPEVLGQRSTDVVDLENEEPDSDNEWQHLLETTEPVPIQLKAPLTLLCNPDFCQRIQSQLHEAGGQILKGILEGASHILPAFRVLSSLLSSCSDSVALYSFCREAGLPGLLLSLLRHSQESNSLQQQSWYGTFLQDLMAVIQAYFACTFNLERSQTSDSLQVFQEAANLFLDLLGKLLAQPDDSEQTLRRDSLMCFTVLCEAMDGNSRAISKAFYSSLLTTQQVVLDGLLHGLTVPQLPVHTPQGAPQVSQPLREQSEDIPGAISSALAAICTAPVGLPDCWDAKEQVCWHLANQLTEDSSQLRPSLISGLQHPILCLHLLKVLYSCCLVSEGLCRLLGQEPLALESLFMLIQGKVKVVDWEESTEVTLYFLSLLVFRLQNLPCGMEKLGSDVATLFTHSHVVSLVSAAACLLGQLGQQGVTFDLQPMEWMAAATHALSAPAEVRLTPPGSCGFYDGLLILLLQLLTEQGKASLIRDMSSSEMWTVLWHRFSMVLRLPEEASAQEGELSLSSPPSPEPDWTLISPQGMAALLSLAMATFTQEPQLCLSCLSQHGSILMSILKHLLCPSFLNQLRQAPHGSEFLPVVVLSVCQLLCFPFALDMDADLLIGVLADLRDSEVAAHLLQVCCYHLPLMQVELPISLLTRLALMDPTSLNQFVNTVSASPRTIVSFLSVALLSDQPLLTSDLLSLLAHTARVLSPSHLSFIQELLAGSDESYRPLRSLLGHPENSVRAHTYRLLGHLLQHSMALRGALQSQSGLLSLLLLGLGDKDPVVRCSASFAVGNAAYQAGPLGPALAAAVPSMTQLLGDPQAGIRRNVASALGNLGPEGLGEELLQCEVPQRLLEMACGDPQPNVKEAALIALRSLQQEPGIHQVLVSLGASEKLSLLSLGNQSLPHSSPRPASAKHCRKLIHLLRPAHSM

[9] = biological target: Serine/threonine-protein kinase PAK 6 (Homo sapiens, UniProt Q9NQU5)
[10] = biological target: Ribosomal protein S6 kinase alpha-2 (Homo sapiens, UniProt Q15349)
[11] = biological target: Serine/threonine-protein kinase 10 (Homo sapiens, UniProt O94804)
[12] = biological target: Fibroblast growth factor receptor 2 (Homo sapiens, UniProt P21802)

Measured: Kd

Chain of Protein-tyrosine kinase 6 (Q13882 whole entry): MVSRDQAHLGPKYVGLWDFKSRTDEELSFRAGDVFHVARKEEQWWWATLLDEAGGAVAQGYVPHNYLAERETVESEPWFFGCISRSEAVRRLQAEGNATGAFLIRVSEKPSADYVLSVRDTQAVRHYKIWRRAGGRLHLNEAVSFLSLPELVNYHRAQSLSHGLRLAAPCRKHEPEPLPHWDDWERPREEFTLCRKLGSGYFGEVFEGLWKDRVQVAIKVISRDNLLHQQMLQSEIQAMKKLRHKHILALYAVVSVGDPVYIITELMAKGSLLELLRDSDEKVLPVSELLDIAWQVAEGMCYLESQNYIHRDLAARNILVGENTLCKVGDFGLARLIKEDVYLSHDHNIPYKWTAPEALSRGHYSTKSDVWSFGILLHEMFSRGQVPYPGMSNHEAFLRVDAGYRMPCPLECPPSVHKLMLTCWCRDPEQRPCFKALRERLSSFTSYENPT
Chain of Serine/threonine-protein kinase pim-2 (Q9P1W9 whole entry): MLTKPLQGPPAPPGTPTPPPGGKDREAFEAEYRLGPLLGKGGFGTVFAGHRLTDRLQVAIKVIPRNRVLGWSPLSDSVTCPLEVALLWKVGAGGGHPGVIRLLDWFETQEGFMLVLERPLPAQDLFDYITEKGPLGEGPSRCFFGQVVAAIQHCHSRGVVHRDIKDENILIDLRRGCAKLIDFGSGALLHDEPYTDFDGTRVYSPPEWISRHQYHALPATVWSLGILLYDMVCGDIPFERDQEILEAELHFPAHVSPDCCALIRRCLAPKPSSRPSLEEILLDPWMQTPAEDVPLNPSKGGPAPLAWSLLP
Chain of Tyrosine-protein kinase Fer (P16591 whole entry): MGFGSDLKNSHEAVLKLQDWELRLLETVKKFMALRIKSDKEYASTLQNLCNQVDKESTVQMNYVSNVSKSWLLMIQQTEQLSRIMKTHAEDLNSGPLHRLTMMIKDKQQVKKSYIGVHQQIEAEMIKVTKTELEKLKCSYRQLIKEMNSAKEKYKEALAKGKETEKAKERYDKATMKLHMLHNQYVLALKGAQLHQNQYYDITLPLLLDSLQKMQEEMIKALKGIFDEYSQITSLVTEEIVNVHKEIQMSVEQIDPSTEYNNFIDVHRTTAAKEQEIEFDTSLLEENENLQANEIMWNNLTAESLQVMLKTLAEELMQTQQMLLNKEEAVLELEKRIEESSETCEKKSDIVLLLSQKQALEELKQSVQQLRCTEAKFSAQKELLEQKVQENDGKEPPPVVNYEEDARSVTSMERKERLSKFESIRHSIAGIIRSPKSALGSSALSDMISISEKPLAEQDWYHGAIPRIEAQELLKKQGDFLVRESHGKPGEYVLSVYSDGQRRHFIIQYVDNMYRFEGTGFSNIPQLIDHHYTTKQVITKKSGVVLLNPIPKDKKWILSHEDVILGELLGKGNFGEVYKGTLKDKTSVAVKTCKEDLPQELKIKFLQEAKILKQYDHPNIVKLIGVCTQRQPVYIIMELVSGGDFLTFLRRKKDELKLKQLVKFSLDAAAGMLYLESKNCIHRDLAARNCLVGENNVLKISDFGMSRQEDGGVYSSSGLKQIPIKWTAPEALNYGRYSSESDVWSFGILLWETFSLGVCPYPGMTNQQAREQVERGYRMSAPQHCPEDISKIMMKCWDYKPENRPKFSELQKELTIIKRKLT
Chain of Serine/threonine-protein kinase 10 (O94804 whole entry): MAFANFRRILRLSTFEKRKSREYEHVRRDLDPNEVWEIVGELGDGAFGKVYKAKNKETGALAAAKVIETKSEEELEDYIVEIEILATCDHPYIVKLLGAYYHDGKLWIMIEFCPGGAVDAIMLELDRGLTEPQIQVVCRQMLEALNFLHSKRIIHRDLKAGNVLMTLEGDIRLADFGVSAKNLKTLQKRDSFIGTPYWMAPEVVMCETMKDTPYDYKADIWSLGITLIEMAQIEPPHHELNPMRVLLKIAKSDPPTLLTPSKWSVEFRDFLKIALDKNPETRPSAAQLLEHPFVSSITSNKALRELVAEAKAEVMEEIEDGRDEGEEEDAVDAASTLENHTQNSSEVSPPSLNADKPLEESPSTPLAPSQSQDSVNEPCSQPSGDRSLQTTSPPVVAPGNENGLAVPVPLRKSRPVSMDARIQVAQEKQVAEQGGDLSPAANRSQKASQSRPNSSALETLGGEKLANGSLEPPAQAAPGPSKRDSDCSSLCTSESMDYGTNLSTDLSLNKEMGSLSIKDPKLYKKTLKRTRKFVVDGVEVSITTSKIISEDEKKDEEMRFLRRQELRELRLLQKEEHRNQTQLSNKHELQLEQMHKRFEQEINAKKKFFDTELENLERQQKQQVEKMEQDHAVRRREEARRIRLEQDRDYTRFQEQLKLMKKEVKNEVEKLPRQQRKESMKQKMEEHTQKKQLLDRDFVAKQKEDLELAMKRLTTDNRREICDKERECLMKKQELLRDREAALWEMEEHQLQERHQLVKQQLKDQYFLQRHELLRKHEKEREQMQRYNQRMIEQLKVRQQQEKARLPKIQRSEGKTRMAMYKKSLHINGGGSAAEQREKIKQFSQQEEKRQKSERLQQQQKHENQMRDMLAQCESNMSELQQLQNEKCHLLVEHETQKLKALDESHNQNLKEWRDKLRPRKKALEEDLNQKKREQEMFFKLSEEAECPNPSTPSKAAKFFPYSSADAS
Chain of Fibroblast growth factor receptor 2 (P21802 whole entry): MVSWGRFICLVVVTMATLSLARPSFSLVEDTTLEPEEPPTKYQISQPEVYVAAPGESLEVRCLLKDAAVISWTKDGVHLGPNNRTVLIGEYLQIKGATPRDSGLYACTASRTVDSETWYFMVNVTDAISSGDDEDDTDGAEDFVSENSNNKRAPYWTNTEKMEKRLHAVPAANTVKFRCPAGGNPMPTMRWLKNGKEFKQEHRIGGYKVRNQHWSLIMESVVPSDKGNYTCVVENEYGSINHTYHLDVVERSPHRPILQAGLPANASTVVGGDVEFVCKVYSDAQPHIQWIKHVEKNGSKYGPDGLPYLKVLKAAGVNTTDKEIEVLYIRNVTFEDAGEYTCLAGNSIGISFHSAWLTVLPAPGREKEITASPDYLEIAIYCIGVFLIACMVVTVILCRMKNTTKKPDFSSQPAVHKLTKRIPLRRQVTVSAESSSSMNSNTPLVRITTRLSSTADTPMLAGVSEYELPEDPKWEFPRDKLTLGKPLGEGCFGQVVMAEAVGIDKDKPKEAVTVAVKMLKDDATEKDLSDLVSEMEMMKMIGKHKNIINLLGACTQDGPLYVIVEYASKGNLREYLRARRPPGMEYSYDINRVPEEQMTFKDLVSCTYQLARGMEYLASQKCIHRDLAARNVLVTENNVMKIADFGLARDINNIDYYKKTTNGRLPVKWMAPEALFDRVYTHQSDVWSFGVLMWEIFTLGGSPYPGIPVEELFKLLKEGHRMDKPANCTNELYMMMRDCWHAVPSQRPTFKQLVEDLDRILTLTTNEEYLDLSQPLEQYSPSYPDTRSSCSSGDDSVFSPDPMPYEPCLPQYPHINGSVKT
Chain of Ephrin type-A receptor 7 (Q15375 whole entry): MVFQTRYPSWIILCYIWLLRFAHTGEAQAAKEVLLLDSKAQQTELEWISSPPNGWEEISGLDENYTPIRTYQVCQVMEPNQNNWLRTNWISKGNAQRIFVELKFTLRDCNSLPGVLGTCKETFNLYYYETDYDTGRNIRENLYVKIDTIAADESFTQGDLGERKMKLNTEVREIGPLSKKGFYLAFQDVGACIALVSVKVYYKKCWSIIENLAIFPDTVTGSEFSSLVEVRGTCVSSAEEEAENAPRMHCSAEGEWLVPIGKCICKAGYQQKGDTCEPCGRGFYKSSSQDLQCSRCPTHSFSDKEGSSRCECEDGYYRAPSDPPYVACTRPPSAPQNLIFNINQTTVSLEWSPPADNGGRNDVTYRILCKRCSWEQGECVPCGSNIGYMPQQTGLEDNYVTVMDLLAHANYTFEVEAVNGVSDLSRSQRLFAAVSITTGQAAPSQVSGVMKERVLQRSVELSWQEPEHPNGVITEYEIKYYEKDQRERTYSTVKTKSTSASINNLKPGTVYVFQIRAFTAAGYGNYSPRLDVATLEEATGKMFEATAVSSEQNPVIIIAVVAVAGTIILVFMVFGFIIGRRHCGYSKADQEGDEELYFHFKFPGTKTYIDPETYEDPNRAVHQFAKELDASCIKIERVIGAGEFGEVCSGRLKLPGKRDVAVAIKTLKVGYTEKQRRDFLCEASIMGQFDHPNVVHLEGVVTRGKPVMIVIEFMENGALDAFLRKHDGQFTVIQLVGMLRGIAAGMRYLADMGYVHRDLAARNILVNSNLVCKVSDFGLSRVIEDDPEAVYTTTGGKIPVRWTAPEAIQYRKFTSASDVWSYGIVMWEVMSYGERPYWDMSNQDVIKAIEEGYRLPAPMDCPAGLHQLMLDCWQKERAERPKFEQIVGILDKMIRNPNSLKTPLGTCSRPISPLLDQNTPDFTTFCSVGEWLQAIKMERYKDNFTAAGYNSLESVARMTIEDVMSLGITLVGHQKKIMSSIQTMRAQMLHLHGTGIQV
Chain of Serine/threonine-protein kinase PAK 6 (Q9NQU5 whole entry): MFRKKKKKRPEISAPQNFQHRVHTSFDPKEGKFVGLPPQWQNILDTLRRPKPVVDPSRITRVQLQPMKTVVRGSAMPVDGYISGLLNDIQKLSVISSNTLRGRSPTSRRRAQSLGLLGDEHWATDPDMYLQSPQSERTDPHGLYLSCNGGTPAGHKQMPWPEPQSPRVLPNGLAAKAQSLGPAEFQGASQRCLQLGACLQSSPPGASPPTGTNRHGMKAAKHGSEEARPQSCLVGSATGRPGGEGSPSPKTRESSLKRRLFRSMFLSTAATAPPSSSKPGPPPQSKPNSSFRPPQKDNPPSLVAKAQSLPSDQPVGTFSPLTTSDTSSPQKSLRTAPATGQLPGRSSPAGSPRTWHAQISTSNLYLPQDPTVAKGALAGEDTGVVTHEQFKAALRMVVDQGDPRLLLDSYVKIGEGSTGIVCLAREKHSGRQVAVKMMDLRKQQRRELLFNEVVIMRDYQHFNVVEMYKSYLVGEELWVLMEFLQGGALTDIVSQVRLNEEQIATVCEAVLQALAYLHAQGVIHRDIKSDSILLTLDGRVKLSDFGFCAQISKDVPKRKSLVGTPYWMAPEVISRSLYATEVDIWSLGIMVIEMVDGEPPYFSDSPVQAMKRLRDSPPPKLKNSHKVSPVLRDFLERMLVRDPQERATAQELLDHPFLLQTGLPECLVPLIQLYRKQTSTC

C#Cc1cccc(Nc2ncnc3cc(OCCOC)c(OCCOC)cc23)c1 [ERLOTINIB]
Not Active: [1] | [2] | [3] | [4] | [5] | [6] | Ephrin type-A receptor 7 | [7] | [8] | [9] | [10]

Cc1ccc(NC(=O)c2ccc(CN3CCN(C)CC3)cc2)cc1Nc1nccc(-c2cccnc2)n1 [IMATINIB]
Not Active: [1] | [2] | [4] | [5] | [6] | Ephrin type-A receptor 7 | [11] | [7] | [8] | [9] | [10] | [12]

O=c1ncn2nc(Sc3ccc(F)cc3F)ccc2c1-c1c(Cl)cccc1Cl [NEFLAMAPIMOD]
Not Active: [1] | [2] | [3] | [4] | [5] | [6] | Ephrin type-A receptor 7 | [11] | [7] | [8] | [9] | [10] | [12]

CCOc1cc2ncc(C#N)c(Nc3ccc(F)c(Cl)c3)c2cc1NC(=O)/C=C/CN(C)C [PELITINIB]
Not Active: [1] | [2] | [4] | [5] | [6] | Ephrin type-A receptor 7 | [9] | [12]

Oc1ccc(-c2nc(-c3ccc(F)cc3)c(-c3ccncc3)[nH]2)cc1 [SB-202190]
Not Active: [1] | [2] | [3] | [5] | [6] | Ephrin type-A receptor 7 | [11] | [7] | [9] | [10] | [12]

C[S+]([O-])c1ccc(-c2nc(-c3ccc(F)cc3)c(-c3ccncc3)[nH]2)cc1 (stereo not drawn) [SB-203580]
Not Active: [1] | [2] | [3] | [5] | [6] | Ephrin type-A receptor 7 | [11] | [7] | [9] | [10] | [12]

CC[C@H](CO)Nc1nc(NCc2ccccc2)c2ncn(C(C)C)c2n1 [SELICICLIB]
Not Active: [1] | [2] | [3] | [4] | [5] | Ephrin type-A receptor 7 | [11] | [7] | [8] | [9] | [12]

Oc1c2ccccc2c2c3c(cccc13)N=N2 [SP-600125]
Not Active: [1] | [4] | [5] | Ephrin type-A receptor 7 | [11] | [7] | [8] | [9] | [12]

COc1cc2c(N3CCN(C(=O)Nc4ccc(OC(C)C)cc4)CC3)ncnc2cc1OCCCN1CCCCC1 [TANDUTINIB]
Not Active: [2] | [3] | [4] | [5] | [6] | Ephrin type-A receptor 7 | [11] | [7] | [8] | [9] | [10] | [12]
